Results published in publication PMC6150220, “An Optimized and Sensitive Pharmacokinetic Quantitative Method of Investigating Gastrodin, Parishin, and Parishin B, C and E in Beagle Dog Plasma using LC-MS/MS after Intragastric Administration of Tall Gastrodia Capsules” (Molecules : A Journal of Synthetic Chemistry and Natural …, 2017).

Assay: in vivo
Description: After full validation, the LC-ESI-MS/MS method was used to analyze large batches of beagle dog plasma. […] The corresponding pharmacokinetic parameters were generated by fitting plasma concentration profiles to a non-compartmental model. These are summarized in Table 3, expressed as the mean ± SD (n = 5).
Quantitative analysis was conducted on a 1290 UPLC-photodiode array 6460 triple quadrupole mass spectrometry system (LC-MS/MS, Agilent Technologies, Palo Alto, CA, USA). Analysis was carried out on. Separation of analytes was performed on a reversed phase Agilent Zorbax XDB-C18 HPLC column (2.1 mm × 50 mm, particle size 3.5 μm) with the column oven set to 30 °C. The elution gradient was carried out with a binary solvent system consisting of an aqueous solution of 0.4% v/v formic acid in water (A) and acetonitrile (B) at a flow rate of 0.15 mL/min. Optimized separation was obtained according to a linear gradient (0–2 min, 2% B; 2–4 min, 2–12% B; 4–8 min, 12–20% B; 8–14 min, 20–28% B; […], 28–90% B). MS/MS conditions were as follows: negative ion mode, drying gas (N2) flow rate 8.0 L/min, drying gas temperature 300 °C, declustering potential 150 V, nebulizer pressure 45 psi, ESI Vcap 3500 V, sheath gas temperature 300 °C, sheath gas flow 12 L/min, nozzle voltage 500 V. The mass transition of gastrodin (m/z 331.1→123.0, CE: 3 eV), parishin (m/z 995.4→727.0, CE: 42 eV), parishin B (m/z 727.3→423.0, CE: 20 eV), parishin C (m/z 727.3→423.1, CE: 20 eV), parishin E (m/z 459.3→110.9, CE: 19 eV) and bergenin (m/z 327.0→234.0, CE: 4 eV).
Adult male […] beagle dogs (12 kg ± 0.020 kg) were purchased from Beijing Shahe Bio-Technology (Beijing, China; certificate No. SCXK2014-0007). Before drug administration, the dogs were fasted for 12 h with free access to water. They were maintained on a 12 h light-dark cycle (light on from 6:00 to 18:00 h) at ambient temperature (22–24 °C) with 60% relative humidity. The animals were observed twice daily and body weights were recorded once per day to assess their general health. All experimental protocols on animals were carried out according to the Guidelines of the Committee on the Care and Use of Laboratory Animals of China.
Fifteen beagle dogs were randomly divided into three groups to receive an intragastric dose of tall Gastrodia capsules (0.125, 0.25 and 0.5 g/kg). Capsules were ultrasonically dissolved in pure water and suspended at concentrations of 5, 10 and 20 mg/mL for intragastric administration. […] The HPLC quantitative analysis was based on the previous report with some modification. After administration, serial blood samples (about 2.00 mL) were collected from the foreleg vein […] into heparin-containing capillary tubes at 10, 20, 30, 45, 60, 120, 180, 240, 480, 720 and 1440 min. Blood samples were promptly centrifuged at 5000 rpm for 5 min, and the plasma was separated and stored at −20 °C until analysis.
Plasma samples were thawed to 4 °C before processing. An aliquot of 200 μL of the plasma sample was transferred into an Eppendorf tube, and 1000 μL of ice-cold 1% formic acid methanol containing IS (10 μL, 2.0 μg/mL) was added to precipitate the plasma proteins. Samples were then vortexed for 3 min and centrifuged at 12,000 rpm for 10 min. The supernatant was transferred and evaporated to dryness under a gentle stream of nitrogen at 40 °C. The residue was reconstituted in 200 μL of 5.0% methanol–water, and a 10 μL aliquot was injected for analysis.

[1] = male, beagle, dog, in vivo, po, 0.125 g/kg
[2] = male, beagle, dog, in vivo, po, 0.25 g/kg
[3] = male, beagle, dog, in vivo, po, 0.5 g/kg

| SMILES | AUC(0-inf) [1] | AUC(0-t) [1] | Cmax [1] | MRT inf [1] | MRT last [1] | Tmax [1] | half-life [1] | AUC(0-inf) [2] | AUC(0-t) [2] | Cmax [2] | MRT inf [2] | MRT last [2] | Tmax [2] | half-life [2] | AUC(0-inf) [3] | AUC(0-t) [3] | Cmax [3] | MRT inf [3] | MRT last [3] | Tmax [3] | further results |
| --- | --- | --- | --- | --- | --- | --- | --- | --- | --- | --- | --- | --- | --- | --- | --- | --- | --- | --- | --- | --- | --- |
| O=C(CC(O)(CC(=O)OCc1ccc(O[C@@H]2O[C@H](CO)[C@@H](O)[C@H](O)[C@H]2O)cc1)C(=O)O)OCc1ccc(O[C@@H]2O[C@H](CO)[C@@H](O)[C@H](O)[C@H]2O)cc1 [Parishin C, parishin C] | 359 ± 99.3 ng·h/mL | 349 ± 100 ng·h/mL | 107 ± 29.4 ng/mL | 2.7 ± 0.28 h | 2.47 ± 0.28 h | 1.35 ± 0.6 h | 1.37 ± 0.18 h | 578 ± 200 ng·h/mL | 567 ± 198 ng·h/mL | 144 ± 55.1 ng/mL | 3.31 ± 0.59 h | 3.14 ± 0.54 h | 2 ± 0.71 h | 1.56 ± 0.41 h | 1100 ± 527 ng·h/mL | 1090 ± 523 ng·h/mL | 243 ± 99.6 ng/mL | 3.25 ± 0.72 h | 3.18 ± 0.69 h | 2.4 ± 0.55 h | Mean plasma clearance (CL) (male, beagle, dog, in vivo, po): 16 mL/min/kg; CL (plasma clearance) [1]: 12 ± 3.83 mL/min/kg; CL (plasma clearance) [2]: 15.2 ± 3.83 mL/min/kg; CL (plasma clearance) [3]: 21 ± 17.5 mL/min/kg; half-life [3]: 1.29 ± 0.36 h |
| O=C(O)CC(O)(CC(=O)OCc1ccc(OC2OC(CO)C(O)C(O)C2O)cc1)C(=O)OCc1ccc(OC2OC(CO)C(O)C(O)C2O)cc1 (centres unmarked) [Parishin B, parishin B] | 1570 ± 533 ng·h/mL | 1550 ± 530 ng·h/mL | 526 ± 143 ng/mL | 2.32 ± 0.25 h | 2.25 ± 0.26 h | 1.25 ± 0.69 h | 1.08 ± 0.11 h | 2720 ± 1140 ng·h/mL | 2700 ± 1130 ng·h/mL | 746 ± 320 ng/mL | 2.84 ± 0.44 h | 2.78 ± 0.42 h | 1.8 ± 0.45 h | 1.18 ± 0.29 h | 4720 ± 2330 ng·h/mL | 4700 ± 2330 ng·h/mL | 1220 ± 562 ng/mL | 2.8 ± 0.42 h | 2.76 ± 0.44 h | 2 ± 0.71 h | Mean plasma clearance (CL) (male, beagle, dog, in vivo, po): 14.5 mL/min/kg; CL (plasma clearance) [1]: 12 ± 6.5 mL/min/kg; CL (plasma clearance) [2]: 13 ± 3.83 mL/min/kg; CL (plasma clearance) [3]: 18.5 ± 14 mL/min/kg; half-life [3]: 1.17 ± 0.22 h |
| O=C(CC(O)(CC(=O)OCc1ccc(OC2OC(CO)C(O)C(O)C2O)cc1)C(=O)OCc1ccc(OC2OC(CO)C(O)C(O)C2O)cc1)OCc1ccc(OC2OC(CO)C(O)C(O)C2O)cc1 (centres unmarked) [Parishin, parishin] | 899 ± 299 ng·h/mL | 868 ± 314 ng·h/mL | 388 ± 116 ng/mL | 2 ± 0.3 h | 1.8 ± 0.42 h | 1 ± 0.56 h | 1.15 ± 0.18 h | 1520 ± 832 ng·h/mL | 1500 ± 836 ng·h/mL | 462 ± 230 ng/mL | 2.65 ± 0.44 h | 2.49 ± 0.4 h | 1.55 ± 0.62 h | 1.38 ± 0.34 h | 3280 ± 1370 ng·h/mL | 3270 ± 1370 ng·h/mL | 969 ± 292 ng/mL | 2.5 ± 0.35 h | 2.48 ± 0.36 h | 1.45 ± 0.76 h | Mean plasma clearance (CL) (male, beagle, dog, in vivo, po): 52.3 mL/min/kg; CL (plasma clearance) [1]: 44.8 ± 16.8 mL/min/kg; CL (plasma clearance) [2]: 59.3 ± 29.2 mL/min/kg; CL (plasma clearance) [3]: 53 ± 27.5 mL/min/kg; half-life [3]: 1.05 ± 0.16 h |
| OCc1ccc(O[C@@H]2O[C@H](CO)[C@@H](O)[C@H](O)[C@H]2O)cc1 [Gastrodin, gastrodin] | 5080 ± 2110 ng·h/mL | 4890 ± 2060 ng·h/mL | 1200 ± 120 ng/mL | 3.33 ± 1.09 h | 2.98 ± 1.01 h | 1.1 ± 0.52 h | 1.86 ± 0.67 h | 9170 ± 1790 ng·h/mL | 8830 ± 1860 ng·h/mL | 2050 ± 495 ng/mL | 3.8 ± 0.28 h | 3.46 ± 0.29 h | 1.75 ± 0.9 h | 1.9 ± 0.26 h | 17600 ng·h/mL | 17000 ng·h/mL | 3760 ± 778 ng/mL | 3.93 ± 0.99 h | 3.54 ± 0.69 h | 2 ± 0.71 h | Time after administration at which detected in plasma (beagle dog plasma, intragastric capsules, all three dosage levels): 10 min; CL (plasma clearance) (beagle dog plasma, intragastric tall Gastrodia capsules, high dose 0.5 g/kg, mean ± SD, n = 5): 3.5 ± 0.83 mL/min/kg; CL (plasma clearance) (beagle dog plasma, intragastric tall Gastrodia capsules, low dose 0.125 g/kg, mean ± SD, n = 5): 3.5 ± 2.17 mL/min/kg; CL (plasma clearance) (beagle dog plasma, intragastric tall Gastrodia capsules, medium dose 0.25 g/kg, mean ± SD, n = 5): 3.33 ± 0.67 mL/min/kg; Mean plasma clearance (CL) (beagle dogs, mean over the three intragastric dose levels of tall Gastrodia capsules): 3.3 mL/min/kg; half-life [3]: 2.09 ± 0.68 h |
